Drawing on US20240247080A1, “GLP1/GIP/NPY2 RECEPTOR TRIPLE AGONISTS” (Boehringer Ingelheim International GmbH, priority 2022, published 2024), this text covers EC50 for 14 substances.

Common to all, as to assay type: cell-based
What all share (settings): CreLuc reporter gene assay
For orientation: Reporter assays use an easily measured gene product as a stand-in for the process of interest.

The target of assay [1] is T1, hGLP1R (Homo sapiens, UniProt P43220).
T1 construct: expressed in transfected cells; host or cells: HEK-293 cells carrying a CRE-luciferase reporter gene
T1 sequence (P43220 24-463): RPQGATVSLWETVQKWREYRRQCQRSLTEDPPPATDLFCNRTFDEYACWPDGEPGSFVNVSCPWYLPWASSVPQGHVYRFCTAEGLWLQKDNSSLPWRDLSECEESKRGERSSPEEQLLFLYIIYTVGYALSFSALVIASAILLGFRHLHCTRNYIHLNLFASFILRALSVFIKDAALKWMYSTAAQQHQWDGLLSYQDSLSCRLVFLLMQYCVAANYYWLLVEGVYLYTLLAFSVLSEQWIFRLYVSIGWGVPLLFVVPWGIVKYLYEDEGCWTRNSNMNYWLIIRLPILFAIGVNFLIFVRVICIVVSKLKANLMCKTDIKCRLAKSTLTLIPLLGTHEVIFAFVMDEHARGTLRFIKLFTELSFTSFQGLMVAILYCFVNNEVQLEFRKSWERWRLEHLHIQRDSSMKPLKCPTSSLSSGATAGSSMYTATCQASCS
The assay can be described thus: hGLP1R CreLuc reporter gene assay in 0.5% and 100% plasma. Summed up:
(§1)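 HEK-293 cells co-expressing GLP-1 or NPY2 receptor and CHO cells expressing GIP receptor, each carrying a CRE-driven luciferase reporter, were stimulated with peptides for 4 hours at 37 °C. Luminescence was read after Bright-Glo addition. EC50 came from 8-point, four-decade curves fitted by variable-slope non-linear regression.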

Assay [2] concerns the target T2, hGIPR (Homo sapiens, UniProt P48546).
T2 construct: expressed in transfected cells; host or cells: CHO cells carrying a CRE-luciferase reporter gene
T2 sequence (P48546 22-466): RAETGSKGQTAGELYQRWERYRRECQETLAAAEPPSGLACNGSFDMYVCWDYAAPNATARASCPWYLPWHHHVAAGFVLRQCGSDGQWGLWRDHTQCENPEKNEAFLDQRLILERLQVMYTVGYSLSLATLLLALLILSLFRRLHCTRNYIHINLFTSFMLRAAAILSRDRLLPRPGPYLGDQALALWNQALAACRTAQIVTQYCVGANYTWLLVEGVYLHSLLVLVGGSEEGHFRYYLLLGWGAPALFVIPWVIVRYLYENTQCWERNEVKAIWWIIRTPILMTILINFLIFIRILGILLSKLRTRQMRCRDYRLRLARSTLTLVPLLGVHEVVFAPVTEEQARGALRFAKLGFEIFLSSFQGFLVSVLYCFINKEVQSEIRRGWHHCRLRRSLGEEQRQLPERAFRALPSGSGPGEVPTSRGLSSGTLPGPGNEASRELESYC
The assay can be described thus: hGIPR CreLuc reporter gene assay in 0.5% and 100% plasma. The procedure, abridged: as §1

Assay [3] has as its target T3, hNPY2R (Homo sapiens, UniProt P49146).
T3 construct: expressed in transfected cells; host or cells: HEK-293 cells carrying a CRE-luciferase reporter gene
T3 sequence (P49146 1-381): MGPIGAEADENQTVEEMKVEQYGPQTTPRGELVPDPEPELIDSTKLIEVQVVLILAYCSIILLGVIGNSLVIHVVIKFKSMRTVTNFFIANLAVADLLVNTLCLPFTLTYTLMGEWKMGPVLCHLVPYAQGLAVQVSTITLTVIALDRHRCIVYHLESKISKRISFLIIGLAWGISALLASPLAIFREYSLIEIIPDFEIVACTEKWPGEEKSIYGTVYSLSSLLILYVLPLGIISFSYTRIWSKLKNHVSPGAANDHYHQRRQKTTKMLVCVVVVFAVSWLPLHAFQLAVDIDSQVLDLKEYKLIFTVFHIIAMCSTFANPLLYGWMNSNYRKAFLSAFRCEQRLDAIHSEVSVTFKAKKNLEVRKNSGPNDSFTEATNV
The assay can be described thus: hNPY2R CreLuc reporter gene assay in 0.5% and 100% plasma. The procedure, abridged:
as §1

Where [4] appears, read: 0.5% human plasma, read-out: hGLP1R 0.5% hP.
Where [5] appears, read: 100% human plasma, read-out: hGLP1R 100% hP.
[6] abbreviates: 0.5% human plasma, read-out: hGIPR 0.5% hP.
Setting [7] is: 100% human plasma, read-out: hGIPR 100% hP.
The mark [8] stands for this setting: 0.5% human plasma, read-out: hNPY2R 0.5% hP.
The mark [9] stands for this setting: 100% human plasma, read-out: hNPY2R 100% hP.

Where two headings read alike, the source gives them in different places. Starred links: 1 amine or outer side, 2 acyl side, 3 side chain; linkers in the order of their positions; H or OH if unused. Non-standard residues stand in square brackets, D forms with d. Groups on a side chain read outwards from the residue. *: point of attachment. C20 diacid = O=C(O)CCCCCCCCCCCCCCCCCCC(=O)*; C18 diacid = O=C(O)CCCCCCCCCCCCCCCCC(=O)*; γGlu = O=C(O)[C@H](CCC(=O)[*:2])N[*:1]; AEEA = NCCOCCOCC(=O)O; Aib = CC(C)(N)C(=O)O; Ahx = NCCCCCC(=O)O

As to “H-Y[Aib]EGTFTSDYSI[Aib]LEKQAQ[Aib]AFVEWLIK([AEEA-AEEA-γGlu-γGlu-γGlu-γGlu-C18 diacid])GGPSSGASLRHYYNWLTRQRY-NH2 [Compound 254, Y-Aib-E-G-T-F-T-S-D-Y-S-I-Aib-L-E-K-Q-A-Q-Aib-A-F-V-E-W-L-I-K(1,3)-GGPSSGASLRHYYNWLTRQRY-NH2.C18DA-gGlu-gGlu-gGlu-gGlu-OEG-OEG(1,2)]”, the EC50 turned out to be 0.07 nM in assay [1] (setting [4]); 1.69 nM in assay [1] (setting [5]); 0.22 nM in assay [2] (setting [6]); 0.63 nM in assay [2] (setting [7]); 17.8 nM in assay [3] (setting [8]); 30.9 nM in assay [3] (setting [9]).

On to “H-Y[Aib]EGTFTSDYSI[Aib]LEKQAQ[Aib]AFVEWLIK([AEEA-AEEA-γGlu-γGlu-γGlu-γGlu-C18 diacid])GGPSSPASLRHYYNWLTRQRY-NH2 [Compound 158, Y-Aib-E-G-T-F-T-S-D-Y-S-I-Aib-L-E-K-Q-A-Q-Aib-A-F-V-E-W-L-I-K(1,3)-GGPSSPASLRHYYNWLTRQRY-NH2.C18DA-gGlu-gGlu-gGlu-gGlu-OEG-OEG(1,2)]”, for which the EC50 was 0.09 nM in assay [1] (setting [4]); 0.11 nM in assay [2] (setting [6]); 0.84 nM in assay [2] (setting [7]); 15.8 nM in assay [3] (setting [8]); 39.9 nM in assay [3] (setting [9]).

Consider “H-Y[Aib]EGTFTSDYSI[Aib]LEKQAQ[Aib]AFVEWLIK([AEEA-AEEA-γGlu-γGlu-γGlu-γGlu-C20 diacid])GGPEEPASLRHYYNWLTRQRY-NH2 [Compound 206, Y-Aib-E-G-T-F-T-S-D-Y-S-I-Aib-L-E-K-Q-A-Q-Aib-A-F-V-E-W-L-I-K(1,3)-GGPEEPASLRHYYNWLTRQRY-NH2.C20DA-gGlu-gGlu-gGlu-gGlu-OEG-OEG(1,2)]”, for which the EC50 in assay [1] (setting [5]) was determined as 17.2 nM; in assay [2] (setting [6]), 0.25 nM; in assay [3] (setting [8]), 13.4 nM.

Regarding “H-Y[Aib]EGTFTSDYSI[Aib]LEKQAQ[Aib]AFVEWLIK([AEEA-AEEA-γGlu-γGlu-γGlu-γGlu-C20 diacid])GGPSEGASLRHYYNWLTRQRY-NH2 [Compound 287, Y-Aib-E-G-T-F-T-S-D-Y-S-I-Aib-L-E-K-Q-A-Q-Aib-A-F-V-E-W-L-I-K(1,3)-GGPSEGASLRHYYNWLTRQRY-NH2.C20DA-gGlu-gGlu-gGlu-gGlu-OEG-OEG(1,2)]”, the EC50 was 0.27 nM in assay [1] (setting [4]), 0.34 nM in assay [2] (setting [6]), 13.3 nM in assay [3] (setting [8]) and 45.9 nM in assay [3] (setting [9]).

“H-Y[Aib]EGTFTSDYSI[Aib]LEKQAQ[Aib]AFVEWLIK([AEEA-AEEA-γGlu-γGlu-γGlu-γGlu-C20 diacid])GGPSEPASLRHYYNWLTRQRY-NH2 [Compound 226, Y-Aib-E-G-T-F-T-S-D-Y-S-I-Aib-L-E-K-Q-A-Q-Aib-A-F-V-E-W-L-I-K(1,3)-GGPSEPASLRHYYNWLTRQRY-NH2.C20DA-gGlu-gGlu-gGlu-gGlu-OEG-OEG(1,2)]”: the values for the EC50 in assay [1] (setting [4]), in assay [2] (setting [6]) and in assay [3] (setting [9]) were 0.24 nM, 0.43 nM and 46.3 nM, respectively.

For “H-Y[Aib]EGTFTSDYSI[Aib]LEKQAQ[Aib]AFVEWLIK([AEEA-AEEA-γGlu-γGlu-γGlu-γGlu-C20 diacid])GGPSSPASLRHYYNWLTRQRY-NH2 [Compound 175, Y-Aib-E-G-T-F-T-S-D-Y-S-I-Aib-L-E-K-Q-A-Q-Aib-A-F-V-E-W-L-I-K(1,3)-GGPSSPASLRHYYNWLTRQRY-NH2.C20DA-gGlu-gGlu-gGlu-gGlu-OEG-OEG(1,2)]”, the EC50 in assay [1] (setting [4]) was 0.1 nM; in assay [2] (setting [6]) it was 0.29 nM; in assay [2] (setting [7]), 1.53 nM; in assay [3] (setting [8]) it was 10.5 nM; in assay [3] (setting [9]), 48.7 nM.

As for “H-Y[Aib]EGTFTSDYSI[Aib]LEKQAQ[Aib]AFVEWLIK([AEEA-AEEA-γGlu-γGlu-γGlu-γGlu-γGlu-C18 diacid])GGPSSPASLRHYYNWLTRQRY-NH2 [Compound 140, Y-Aib-E-G-T-F-T-S-D-Y-S-I-Aib-L-E-K-Q-A-Q-Aib-A-F-V-E-W-L-I-K(1,3)-GGPSSPASLRHYYNWLTRQRY-NH2.C18DA-gGlu-gGlu-gGlu-gGlu-gGlu-OEG-OEG(1,2)]”, the EC50 in assay [1] (setting [4]) worked out at 0.12 nM; in assay [1] (setting [5]) it was 3.11 nM; in assay [2] (setting [6]), 0.22 nM; in assay [3] (setting [8]), 12.4 nM; in assay [3] (setting [9]) it was 45.9 nM.

Turning to “H-Y[Aib]EGTFTSDYSI[Aib]LEKQAQ[Aib]AFVEWLIK([AEEA-AEEA-γGlu-γGlu-γGlu-γGlu-γGlu-C20 diacid])GGPSSGASLRHYYNWLTRQRY-NH2 [Compound 229, Y-Aib-E-G-T-F-T-S-D-Y-S-I-Aib-L-E-K-Q-A-Q-Aib-A-F-V-E-W-L-I-K(1,3)-GGPSSGASLRHYYNWLTRQRY-NH2.C20DA-gGlu-gGlu-gGlu-gGlu-gGlu-OEG-OEG(1,2)]”, the EC50 in assay [1] (setting [4]) came out at 0.1 nM; in assay [2] (setting [6]) it was 0.22 nM; in assay [2] (setting [7]) it was 1.42 nM; in assay [3] (setting [8]), 10.8 nM; in assay [3] (setting [9]), 27.2 nM.

“H-Y[Aib]EGTFTSDYSI[Aib]LEKQAQ[Aib]AFVEWLIK([Ahx-γGlu-γGlu-γGlu-γGlu-γGlu-C18 diacid])GGPSSGASLRHYYNWLTRQRY-NH2 [Compound 260, Y-Aib-E-G-T-F-T-S-D-Y-S-I-Aib-L-E-K-Q-A-Q-Aib-A-F-V-E-W-L-I-K(1,3)-GGPSSGASLRHYYNWLTRQRY-NH2.C18DA-gGlu-gGlu-gGlu-gGlu-gGlu-AHX(1,2)]”: the values for the EC50 in assay [1] (setting [4]), in assay [2] (setting [6]) and in assay [3] (setting [8]) were 0.13 nM, 0.31 nM and 26.4 nM, respectively.

Consider “H-Y[Aib]EGTFTSDYSI[Aib]LEKQAQ[Aib]AFVEWLIK([Ahx-γGlu-γGlu-γGlu-γGlu-γGlu-C20 diacid])GGPSEGASLRHYYNWLTRQRY-NH2 [Compound 301, Y-Aib-E-G-T-F-T-S-D-Y-S-I-Aib-L-E-K-Q-A-Q-Aib-A-F-V-E-W-L-I-K(1,3)-GGPSEGASLRHYYNWLTRQRY-NH2.C20DA-gGlu-gGlu-gGlu-gGlu-gGlu-AHX(1,2)]”, for which the EC50 is 0.23 nM in assay [1] (setting [4]), 0.58 nM in assay [2] (setting [6]), 3.27 nM in assay [2] (setting [7]) and 99.3 nM in assay [3] (setting [9]).

On to “H-Y[Aib]EGTFTSDYSI[Aib]LEKQAQ[Aib]AFVEWLIK([Ahx-γGlu-γGlu-γGlu-γGlu-γGlu-γGlu-C18 diacid])GGPSEGASLRHYYNWLTRQRY-NH2 [Compound 303, Y-Aib-E-G-T-F-T-S-D-Y-S-I-Aib-L-E-K-Q-A-Q-Aib-A-F-V-E-W-L-I-K(1,3)-GGPSEGASLRHYYNWLTRQRY-NH2.C18DA-gGlu-gGlu-gGlu-gGlu-gGlu-gGlu-AHX(1,2)]”, for which the EC50 in assay [1] (setting [4]) is 0.2 nM; in assay [2] (setting [6]) it was 0.36 nM; in assay [3] (setting [9]), 122 nM.

On to “H-Y[Aib]EGTFTSDYSI[Aib]LEKQAQ[Aib]AFVEWLIK([Glu-Glu-Glu-Glu-C18 diacid])GGPSEGASLRHYYNWLTRQRY-NH2 [Compound 291, Y-Aib-E-G-T-F-T-S-D-Y-S-I-Aib-L-E-K-Q-A-Q-Aib-A-F-V-E-W-L-I-K(1,3)-GGPSEGASLRHYYNWLTRQRY-NH2.C18DA-E-E-E-E(1,2)]”, for which the EC50 was 0.1 nM in assay [1] (setting [4]), 0.18 nM in assay [2] (setting [6]), 0.7 nM in assay [2] (setting [7]) and 14.3 nM in assay [3] (setting [8]).

Turning to “H-Y[Aib]EGTFTSDYSI[Aib]LEKQAQ[Aib]AFVEWLIK([γGlu-γGlu-γGlu-γGlu-C18 diacid])GGPEEGASLRHYYNWLTRQRY-NH2 [Compound 272, Y-Aib-E-G-T-F-T-S-D-Y-S-I-Aib-L-E-K-Q-A-Q-Aib-A-F-V-E-W-L-I-K(1,3)-GGPEEGASLRHYYNWLTRQRY-NH2.C18DA-gGlu-gGlu-gGlu-gGlu(1,2)]”, the EC50 turned out to be 0.31 nM in assay [1] (setting [4]), 0.24 nM in assay [2] (setting [6]), 3.01 nM in assay [2] (setting [7]) and 23.8 nM in assay [3] (setting [8]).

For the substance “H-Y[Aib]EGTFTSDYSI[Aib]LEKQAQ[Aib]AFVEWLIK([γGlu-γGlu-γGlu-γGlu-C18 diacid])GGPSEGASLRHYYNWLTRQRY-NH2 [Compound 294, Y-Aib-E-G-T-F-T-S-D-Y-S-I-Aib-L-E-K-Q-A-Q-Aib-A-F-V-E-W-L-I-K(1,3)-GGPSEGASLRHYYNWLTRQRY-NH2.C18DA-gGlu-gGlu-gGlu-gGlu(1,2)]”, the EC50 came out at 0.08 nM in assay [1] (setting [4]), 0.21 nM in assay [2] (setting [6]), 0.89 nM in assay [2] (setting [7]) and 55.2 nM in assay [3] (setting [9]).
